# From patent publication US20030153611A1, “1,3-Diarylprop-2-en-1-ones, compositions containing them and use thereof” (AVENTIS PHARMA S.A., priority 2001, published 2003)
# Counter-ions that a name gives are not always drawn.
# System: C51 murine adenocarcinoma
# Experiment: Assessment of the tumor necrosis in vivo
# Conditions: intravenous injection, 24 hours after treatment, female BALB/c mice
# From the text: Mice are bred by IFFA-CREDO (Domaine des Oncins, 69210 L'Arbresle, France) from a race obtained by Jackson Laboratories, Bar Harbor, Me., USA, or by Charles River France (76410 St Aubin les Elbeuf, France) from a race obtained by Charles River, USA. The mice initially weigh more than 18 g at the start of the test. They have free access to food (UAR reference 113, Villemoisson, 91160 Epinay sur Orge, France) and water.
# The tumors used are currently transplanted in our laboratories. All these tumors are at the Frederick Cancer Research Facility (Frederick, Md., USA) in the frozen tumor deposit of the National Cancer Institute (NCl) or at the American Type Culture Collection (ATCC, Rockville, Md., USA).
# The tumor transplantation techniques, the chemotherapy and the data analysis are presented in detail (Corbett et al. 1982a; Corbett et al., 1982b).
# To summarize, the animals required for an experiment are assembled and implanted bilaterally on day 0 (zero).
# The growth of the solid tumors develops freely up to the desired size. The mice are then treated by intravenous injection of a test compound in solution.
# The sampling of tumors is usually (but not necessarily) carried out 24 hours after the treatment.
# The mice are killed by […]. The implanted tumors, along with the skin covering them and the neighboring tissues, are collected and stored in 10% formaldehyde (v/v) (Carlo Erba, Val de Reuil, France).
# The samples are then treated, sectioned, stained with hematoxylin, eosin and saffron yellow, and are then examined […]. The tumor necrosis (necrosis±degeneration) is assessed microscopically using a scale of magnitude from 0 to 5:
# The values assigned to the tumor necrosis 24 hours after administration of the test compound correspond solely to a necrosis dependent on the product which may be differentiated with certainty from any existing necrosis arising from the experiment.
# The necrosis due to the experiment was assessed on an untreated control.
# The tumor model is a C51 murine adenocarcinoma. This colon tumor is a grade III mucous colon […]. It is maintained by serial subcutaneous passages every 18 days in female BALB/c mice. The experiments were carried out on female BALB/c mice.
smiles,measurement,setting,value
"COc1cc(C(=O)/C(C)=C/c2ccc3c(ccn3C)c2)cc(OC)c1OC [Example 5, E-2-Methyl-3-(1-methyl-1-H-indol-5-yl)-1-(3,4,5-trimethoxyphenyl)propenone]",C51 colon tumor necrosis in vivo (grade),25 mg/kg,"Grade 5 at 25 (5=large, >75%)"
"COc1ccc(/C=C(\C)C(=O)c2cc(OC)c(OC)c(OC)c2)cc1NC(=O)[C@@H](N)CO [Example 13, (S)-2-Amino-3-hydroxypropanoic acid {2-methoxy-5-[2-methyl-3-oxo-3-(3,4,5-trimethoxyphenyl)propenyl]phenyl}amide hydrochloride]",C51 colon tumor necrosis in vivo (grade),12.5 mg/kg,"Grade 5 at 12.5 (5=large, >75%)"
